Measured values taken from patent US11192865B2, “Benzosulfonyl compounds” (Vivace Therapeutics, Inc., priority 2017, dated 2021).
pIC50: −log10 of the molar value.

Test system: 8XTBD luciferase reporter
Test: YAP Reporter Assay
Assay type: cell-based
Conditions: Homo sapiens, HEK-293T; HEK293T cells stably transfected with 8XTBD luciferase reporter and pRLTK; 24-hr incubation; starting from 3 μM, 1:3 dilution, 10 points; read-out: Firefly Luciferase IC50
Method in brief: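 HEK293T cells stably carrying the 8XTBD firefly luciferase reporter and TK-renilla control received compounds at a 10-point, 1:3 series from 3 μM (final) in quadruplicate. After 24 h at 37° C, Dual-Glo luminescence was read. IC50 and maximal inhibition were reported separately for firefly and renilla signals.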

Row | SMILES | pIC50
1 | CNS(=O)(=O)c1ccc(NC2CCCCC2)c(-c2nnn(C3CCCN(S(C)(=O)=O)C3)n2)c1 (stereo not shown) [Compound 62, 4-(cyclohexylamino)-N-methyl-3-(2-(1-(methylsulfonyl)piperidin-3-yl)-2H-tetrazol-5-yl)benzenesulfonamide] | < 5.52
2 | CNS(=O)(=O)c1ccc(NC2CCCCC2)c(-c2nnn(C3CCCN(c4ccccc4)C3)n2)c1 (stereo not shown) [Compound 63, 4-(cyclohexylamino)-N-methyl-3-(2-(1-phenylpiperidin-3-yl)-2H-tetrazol-5-yl)benzenesulfonamide] | < 5.52
3 | CNS(=O)(=O)c1ccc(NC2CCCCC2)c(-c2ccncc2)c1 [Compound 65, 4-(cyclohexylamino)-N-methyl-3-(pyridin-4-yl)benzenesulfonamide] | < 5.52
4 | CNS(=O)(=O)c1ccc(NC2CCCCC2)c(-c2nnn(C3CCN(c4cccnc4)C3)n2)c1 (stereo not shown) [Compound 68, 4-(cyclohexylamino)-N-methyl-3-(2-(1-(pyridin-3-yl)pyrrolidin-3-yl)-2H-tetrazol-5-yl)benzenesulfonamide] | 6.00 to 7.00
5 | CNS(=O)(=O)c1ccc(NC2CCCCC2)c(-c2ccncn2)c1 [Compound 69, 4-(cyclohexylamino)-N-methyl-3-(pyrimidin-4-yl)benzenesulfonamide] | 6.00 to 7.00
6 | CNS(=O)(=O)c1ccc(NC2CCCCC2)c(-c2nnn(C3CN(c4cccnc4)C3)n2)c1 [Compound 70, 4-(cyclohexylamino)-N-methyl-3-(2-(1-(pyridin-3-yl)azetidin-3-yl)-2H-tetrazol-5-yl)benzenesulfonamide] | 6.00 to 7.00
7 | CNS(=O)(=O)c1ccc(NC2CCCCC2)c(-c2nnn(C3CC3)n2)c1 [Compound 71, 4-(cyclohexylamino)-3-(2-cyclopropyl-2H-tetrazol-5-yl)-N-methylbenzene sulfonamide] | < 5.52
8 | CNS(=O)(=O)c1ccc(NC2CCCCC2)c(-c2nnn(C3CCCNC3)n2)c1 (stereo not shown) [Compound 74, 4-(cyclohexylamino)-N-methyl-3-(2-(piperidin-3-yl)-2H-tetrazol-5-yl)benzenesulfonamide] | 6.00 to 7.00
9 | CNS(=O)(=O)c1ccc(NC2CCCCC2)c(-c2nnnn2C2CCCNC2)c1 (stereo not shown) [Compound 75, 4-(cyclohexylamino)-N-methyl-3-(1-(piperidin-3-yl)-1H-tetrazol-5-yl)benzenesulfonamide] | 5.52 to 6.00
10 | CNS(=O)(=O)c1ccc(NC2CCCCC2)c(-c2cccc(N)n2)c1 [Compound 76, 3-(6-aminopyridin-2-yl)-4-(cyclohexylamino)-N-methylbenzenesulfonamide] | 6.00 to 7.00
11 | CNS(=O)(=O)c1ccc(NC2CCCCC2)c(-c2cccnc2)c1 [Compound 77, 4-(cyclohexylamino)-N-methyl-3-(pyridin-3-yl)benzenesulfonamide] | < 5.52

Results, then the compound that gave them:

Row | pIC50 | SMILES
12 | ≥ 7.00 | CNS(=O)(=O)c1ccc(NC2CCCCC2)c(-c2ccccn2)c1 [Compound 64, 4-(cyclohexylamino)-N-methyl-3-(pyridin-2-yl)benzenesulfonamide]
13 | 6.00 to 7.00 | CNS(=O)(=O)c1ccc(NC2CCCCC2)c(-c2n[nH]c(C)n2)c1 [Compound 66, 4-(cyclohexylamino)-N-methyl-3-(5-methyl-1H-1,2,4-triazol-3-yl)benzenesulfonamide]
14 | ≥ 7.00 | CNS(=O)(=O)c1ccc(NC2CCCCC2)c(-c2nc(C)n(C)n2)c1 [Compound 67, 4-(cyclohexylamino)-3-(1,5-dimethyl-1H-1,2,4-triazol-3-yl)-N-methylbenzenesulfonamide]
15 | ≥ 7.00 | CNS(=O)(=O)c1ccc(NC2CCC(F)(F)CC2)c(-c2nnn(C)n2)c1 [Compound 72, 4-((4,4-difluorocyclohexyl)amino)-N-methyl-3-(2-methyl-2H-tetrazol-5-yl)benzenesulfonamide]
16 | ≥ 7.00 | CNS(=O)(=O)c1ccc(NC2CCCC(F)(F)C2)c(-c2nnn(C)n2)c1 (stereo not shown) [Compound 73, 4-((3,3-difluorocyclohexyl)amino)-N-methyl-3-(2-methyl-2H-tetrazol-5-yl)benzenesulfonamide]
